Molecules are shown by their SMILES.

Experiment [1] deals with New Zealand Male Rabbits fed a high cholesterol diet. Briefly: Plasma lipids in rabbits fed a high cholesterol diet, severe dyslipidemic model (Example 11). The experiment is classed as in vivo, New Zealand white rabbits. Here is the method:
Male New Zealand white rabbits ([…]; Control group [n=5], Simvastatin Group [n=4], Compound A Group [n=5], Compound B Group [n=5] and Compound C Group [n=5]) were housed in individual cages in a room with constant humidity and temperature (22° C.) under a 12 h light-dark cycle, and fed a standard diet for 7 days. After 7 days, animals were fed 10 g of a regular chow diet plus 100 g of the same diet supplemented with 0.5% (w/v) cholesterol and 14.0% (w/v) coconut oil for an additional 28 days. The final diet administered to these rabbits (following dilution of 100 g of high fat/cholesterol diet with 10 g of regular chow) consistent of 0.45% (w/v) cholesterol and 12.75% (w/v) coconut oil. […] The total plasma cholesterol, ApoB, HDL and triglyceride concentrations of the subjects prior to drug treatment is set forth in FIGS. 1-4, respectively.
For an additional 21 days (day 35 to day 56 of the study), a group of control animals (n=5) were maintained on the same diet (10 g regular chow diet plus 100 g of cholesterol/coconut diet) and four groups of animals were fed 100 g of cholesterol/coconut diet plus 10 g regular chow diet containing either simvastatin (3 mg/kg/day; n=4), Compound A (hydrogen protonated layered phyllosilicate material (prepared as described above in Example 2); 20 mg/kg/day; n=5), Compound B (layered phyllosilicate material with surface modified with lecithin prepared as described above in Example 5); 20 mg/kg/day; n=5) and Compound C (layered phyllosilicate material with surface acid treatment prepared as described above in Example 6) 20 mg/kg/day; n=5). Whole blood was collected (3 ml) prior to and 7, 14, and 21 days after initiation of treatment for plasma lipid determinations.
Plasma total cholesterol and triglyceride concentrations were directly quantified using enzymatic kits (Sigma Aldrich). HDL-cholesterol concentrations were determined using the dextran sulfate-Mg^2+ precipitation method as developed by Wamick et al. (9). The Friedewald equation for determining LDL cholesterol could not be used in this rabbit fed model (10). However, measurement of apoB cholesterol (which takes into account LDL-cholesterol) concentrations were determined by subtracting HDL-cholesterol concentrations from total cholesterol concentrations.
Statistical analysis: Results are expressed as mean±standard error of the mean (SEM). Statistical analyses were conducted using an analysis of variance (PCANOVA; Human Dynamic Systems) and assuming unequal variance (Newman Keuls post-hoc test; assuming unequal variance). Variables compared among treatment groups include, weight gain, total plasma cholesterol, total plasma triglyceride, HDL-cholesterol and ApoB-cholesterol. A p-value of less than 0.05 indicates a significant difference between treated and untreated groups.

Experiment [2] deals with intestinal cholesterol absorption. The experiment is described as follows: Absorption of orally given [3H]cholesterol in rats, plasma AUC (Example 12). Format: in vivo, male Sprague Dawley rats. On the procedure: The following Example was performed to determine the bioavailability and pharmacokinetics of dietary cholesterol following oral administration of different layered phyllosilicate material compounds to male Sprague Dawley rats, using the methodology reported in Wassan et al. J. Pharmaceut. Sci., 90:23-28, 2001.
Preparation of cholesterol formulation: Commercially available 20% Intralipid® was diluted by external phase of emulsion to reach a triglyceride concentration of 10% v/v. Cold cholesterole as dissolved in 100% ethanol (1 mg/75 μl) and the solution was slowly added to the 10% Intralipid® with magnetic stirring. [^3H]cholesterol toluene solution (25 μl/ml) was then slowly added and then vortexed for 30 seconds. The formulation was then mixed by magnetic stirring for an additional 30 minutes until ready for administration. The final formulation contained 90% of the 10% Intralipid®, 7.5% ethanol and 2.5% toluene. The final concentrations of cold and radiolabeled cholesterol were 1 mg/ml and 25 μCi/ml, respectively.
Preparation of Ezetimibe Formulation: Commercially Available Ezetimibe Tablets were crushed and suspended in double distilled water to reach final ezetimibe concentration of 5 mg/ml. The suspension was briefly vortexed and then stirred using a magnetic stirrer for about 1 hour until ready for administration.
Preparation of the Stigmastanol Formulation: Stigmastanol was Pre-Wetted by Tween 80 (1% v/v final concentration) and suspended in 2% sodium carboxymethyl cellulose solution in double distilled water. The suspension was briefly vortexed for about 3 minutes, sonicated (Bransonic®3510) for 2 hours at ambient temperature and then stirred with a magnetic stirrer for 30 minutes until ready for administration. The final concentration of stigmastanol in the suspension was 25 mg/ml.
Experimental design: All rats used in this study were cared for in accordance with the principles promulgated by the Canadian Council on Animal Care and the University of British Columbia. Adult male Sprague Dawley rats (weighing approximately 350 g) were obtained from UBC animal care unit (Vancouver, B. C., Canada). The rats were maintained under a 12 hour light ([…])/dark cycle and supplied with a standard laboratory diet (PMI Feeds, Richmond, Va., USA) and water ad libitum. The right external jugular vein was cannulated with a two-part catheter consisting of PE 50 connected to a short length of 0.02 inch silastic tubing inserted 3.2 cm past the clavicle (Hauss et al., Contemp Top Lab Anim Sci., 37(3):56-58 1998). The jugular cannula was tunneled beneath the skin and exteriorized through a small stab wound in the back of the neck. The animals were outfitted with jacket-and-tether assemblies and placed in metabolism cages for the duration of the study.
Following completion of the surgical procedures, the animals were fasted overnight and permitted to recover for 16-20 hours. Free access to a drinking solution consisting of 5% glucose in lactated Ringer's solution was permitted postoperatively and throughout the study. The following treatment protocol was used. Following an overnight fast (12-16 hours), rats were divided into one of the following fourteen treatment groups and received a single-dose oral gavage (1 g Intralipid emulsion) at 0700 h of either:
All of test Compounds A, G, H, I, J, K, L or M were given as a separate slurry to the animal by oral gavage.
Following oral administration, serial blood samples were collected into EDTA-coated tubes predose and at 10 minutes predosing and at 0.5, 1, 2, 4, 6, 10, 24 28, 32 and 48 hours postdosing. The withdrawn blood was replaced by equal volume of normal saline to prevent hypovolemia. Rats remained fasted throughout the duration of blood sampling (12 h predosing+24 h postdosing=[…] total fasting). Plasma was obtained by centrifugation and analyzed for [^3H] cholesterol by radioactivity. […]

As to `CCC(C)(C)C(=O)O[C@H]1C[C@@H](C)C=C2C=C[C@H](C)[C@H](CC[C@@H]3C[C@@H](O)CC(=O)O3)[C@H]21` [Simvastatin, simvastatin], the “ApoB-Cholesterol, % C (percentage change from Day 35 to Day 56)” value in experiment [1] (SVT 3 mg/kg/day, A, B, C 20 mg/kg/day, control +63%) is reported as −53%. Besides, the “Total Cholesterol, % C (percentage change from Day 35 to Day 56)” value in experiment [1] (SVT 3 mg/kg/day, A, B, C 20 mg/kg/day, control +68%) is on record as −52%. For the same compound, the “Total Cholesterol, Day 35” value in experiment [1] (beginning of drug treatment (day 35), mean ± SEM, SVT 3 mg/kg/day, A, B, C 20 mg/kg/day) turned out to be 1167 ± 276 mg/dL. Further, in experiment [1] (beginning of drug treatment (day 35), total minus HDL cholesterol, mean ± SEM), the “ApoB-Cholesterol, Day 35” value came out at 1092 ± 265 mg/dL. The “Total Cholesterol, Day 56” value in experiment [1] (end of drug treatment (day 56), mean ± SEM, SVT 3 mg/kg/day, A, B, C 20 mg/kg/day) is listed as 556 ± 122 mg/dL. In addition, the “ApoB-Cholesterol, Day 56” value in experiment [1] (end of drug treatment (day 56), total minus HDL cholesterol, mean ± SEM) stood at 517 ± 121 mg/dL.
On to `O=C1[C@H](CC[C@H](O)c2ccc(F)cc2)[C@@H](c2ccc(O)cc2)N1c1ccc(F)cc1` [ezetimibe], for which the “% of control group (AUC0-48 h)” value in experiment [2] (10 mg/kg) is recorded as 8.6%. The compound further displayed an AUC0-48h (mean±SEM) in experiment [2] (10 mg/kg ezetimibe) of 6940 ± 462 ng·h/mL. In experiment [2] (10 mg/kg oral with [3H]cholesterol, control 80861 ± 5911), the “AUC0-48 h of cholesterol (mean ± SEM)” value amounted to 6937 ± 462 ng·h/mL. Besides, the “inhibition of intestinal cholesterol absorption, in words” value in experiment [2] (ezetimibe 10 mg/kg versus Compound A or stigmastanol 50 mg/kg) is on record as “higher inhibition”.
For the compound `CC[C@H](CC[C@@H](C)[C@H]1CC[C@H]2[C@@H]3CC[C@H]4C[C@@H](O)CC[C@]4(C)[C@H]3CC[C@]12C)C(C)C` [stigmastanol], the “% of control group (AUC0-48 h)” value in experiment [2] (50 mg/kg) turned out to be 68.9%. In addition, the “AUC0-48 h of cholesterol (mean ± SEM)” value in experiment [2] (50 mg/kg oral with [3H]cholesterol) worked out at 55742 ± 3764 ng·h/mL.

The values above are taken from patent US8481084B2, “Cholesterol-interacting layered phyllosilicates and methods of reducing hypercholesteremia in a mammal” (Amcol International Corporation, priority 2007, dated 2013).
